Source: ChEMBL document CHEMBL3885861, “Open TG-GATES”
Where “and” joins values, the source holds several entries; their conditions need not be identical. Equal entries are not always repeated.

Species: Rattus norvegicus
Test: Open TG-GATES - Regimen: Single
Type: toxicity, organism-based, Sprague-Dawley
Design: regimen Single, gender Male, age 6 weeks
Conditions: in vivo, po, 0 mg/kg, route gavage, dose level Control; for APTT / Bas / Eos / Fbg / Hb / Ht / Lym / MCH / MCHC / MCV / Mono / Neu / PT / Plat / RBC / Ret / WBC: tissue Blood; for KIDNEY_L / KIDNEY_R / KIDNEY_TOTAL: tissue Kidney; for LIVER: tissue Liver

O=C1CN(/N=C/c2ccc([N+](=O)[O-])o2)C(=O)N1 [NITROFURANTOIN]
TERMINAL_BW (3 h): 220.5 g and 212 g | APTT (3 h): 20.2 s and 16.2 s | Bas (3 h): 0% | Eos (3 h): 0.8% and 1.4% | Fbg (3 h): 213.2 mg/dL and 223.8 mg/dL | Hb (3 h): 13.3 g/dL and 12.9 g/dL | Ht (3 h): 37.7% and 38.8% | Lym (3 h): 79.2% and 74% | MCH (3 h): 21.5 pg | MCHC (3 h): 35.3% and 33.1% | MCV (3 h): 60.7 fL and 64.8 fL | Mono (3 h): 2% and 5% | Neu (3 h): 16.4% and 20.2% | PT (3 h): 12.9 s and 12 s | Plat (3 h): 112.1 x10_4/uL and 122.4 x10_4/uL | RBC (3 h): 620.6 x10_4/ul and 599.8 x10_4/ul | Ret (3 h): 7.4% and 6.9% | WBC (3 h): 98.8 x10_2/uL and 73.8 x10_2/uL | KIDNEY_L (3 h): 1 g and 0.9 g | KIDNEY_R (3 h): 1 g and 0.9 g | KIDNEY_TOTAL (3 h): 2 g and 1.9 g | LIVER (3 h): 10.4 g and 9.4 g | A/G (3 h, tissue Plasma): 1.7 and 2.2 | ALP (3 h, tissue Plasma): 989 IU/L and 1656.4 IU/L | ALT (3 h, tissue Plasma): 38.8 IU/L and 39.2 IU/L | AST (3 h, tissue Plasma): 67.6 IU/L and 66.6 IU/L | BUN (3 h, tissue Plasma): 11.6 mg/dL and 13 mg/dL | CRE (3 h, tissue Plasma): 0.4 mg/dL and 0.3 mg/dL | Ca (3 h, tissue Plasma): 10.8 mg/dL and 11.1 mg/dL | Cl (3 h, tissue Plasma): 101.6 meq/L and 104 meq/L | GLC (3 h, tissue Plasma): 190.2 mg/dL and 202 mg/dL | IP (3 h, tissue Plasma): 8.4 mg/dL and 9.1 mg/dL | K (3 h, tissue Plasma): 4 meq/L and 4.5 meq/L | LDH (3 h, tissue Plasma): 180.2 IU/L and 74.6 IU/L | Na (3 h, tissue Plasma): 140.6 meq/L and 139.2 meq/L | PL (3 h, tissue Plasma): 135.4 mg/dL and 141.2 mg/dL | RALB (3 h, tissue Plasma): 3.5 g/dL and 3.8 g/dL | TC (3 h, tissue Plasma): 73.4 mg/dL and 84.8 mg/dL | TG (3 h, tissue Plasma): 80.2 mg/dL and 53 mg/dL | TP (3 h, tissue Plasma): 5.6 g/dL and 5.5 g/dL | gamma-GTP (3 h, tissue Plasma): 1 IU/L | TERMINAL_BW (6 h): 219 g and 212.6 g | APTT (6 h): 19.5 s and 16.2 s | Bas (6 h): 0% | Eos (6 h): 1% | Fbg (6 h): 221.8 mg/dL and 224 mg/dL | Hb (6 h): 12.9 g/dL and 12.6 g/dL | Ht (6 h): 36.6% and 38.1% | Lym (6 h): 75.4% and 75.2% | MCH (6 h): 21.8 pg and 21 pg | MCHC (6 h): 35.4% and 33.1% | MCV (6 h): 61.6 fL and 63.7 fL | Mono (6 h): 3.4% and 6.6% | Neu (6 h): 18.8% and 17.2% | PT (6 h): 12.7 s and 12 s | Plat (6 h): 108.3 x10_4/uL and 124 x10_4/uL | RBC (6 h): 594.4 x10_4/ul and 598.8 x10_4/ul | Ret (6 h): 7.9% and 7.7% | WBC (6 h): 107.6 x10_2/uL and 78.5 x10_2/uL | KIDNEY_L (6 h): 1 g and 0.9 g | KIDNEY_R (6 h): 1 g | KIDNEY_TOTAL (6 h): 2 g and 1.9 g | LIVER (6 h): 9.8 g | A/G (6 h, tissue Plasma): 1.5 and 2.3 | ALP (6 h, tissue Plasma): 798.6 IU/L and 1341.4 IU/L | ALT (6 h, tissue Plasma): 34.4 IU/L and 35.2 IU/L | AST (6 h, tissue Plasma): 61 IU/L and 65.8 IU/L | BUN (6 h, tissue Plasma): 12 mg/dL and 14.8 mg/dL | CRE (6 h, tissue Plasma): 0.4 mg/dL | Ca (6 h, tissue Plasma): 10.8 mg/dL and 10.9 mg/dL | Cl (6 h, tissue Plasma): 102.4 meq/L and 103.8 meq/L | GLC (6 h, tissue Plasma): 185.8 mg/dL and 193.2 mg/dL | IP (6 h, tissue Plasma): 8.6 mg/dL and 7.9 mg/dL | K (6 h, tissue Plasma): 4.2 meq/L and 4.6 meq/L | LDH (6 h, tissue Plasma): 177 IU/L and 74.4 IU/L | Na (6 h, tissue Plasma): 140.4 meq/L and 137.2 meq/L | PL (6 h, tissue Plasma): 137.2 mg/dL and 147 mg/dL | RALB (6 h, tissue Plasma): 3.2 g/dL and 3.8 g/dL | TC (6 h, tissue Plasma): 80 mg/dL and 86 mg/dL | TG (6 h, tissue Plasma): 54 mg/dL and 118.6 mg/dL | TP (6 h, tissue Plasma): 5.4 g/dL | gamma-GTP (6 h, tissue Plasma): 1 IU/L and 0.4 IU/L | TERMINAL_BW (9 h): 214.5 g and 212 g | APTT (9 h): 19.4 s and 16 s | Bas (9 h): 0% | Eos (9 h): 1% | Fbg (9 h): 216.6 mg/dL and 235.2 mg/dL | Hb (9 h): 13.5 g/dL and 12.9 g/dL | Ht (9 h): 38.4% and 39.4% | Lym (9 h): 77.2% and 72% | MCH (9 h): 21.4 pg and 21.3 pg | MCHC (9 h): 35.3% and 32.7% | MCV (9 h): 60.8 fL and 64.9 fL | Mono (9 h): 2.8% and 8.8% | Neu (9 h): 18.2% and 18.4% | PT (9 h): 12.7 s and 11.8 s | Plat (9 h): 113.7 x10_4/uL and 107.9 x10_4/uL | RBC (9 h): 633.4 x10_4/ul and 606 x10_4/ul | Ret (9 h): 7.1% | WBC (9 h): 86.1 x10_2/uL and 82.1 x10_2/uL | KIDNEY_L (9 h): 1 g and 0.9 g | KIDNEY_R (9 h): 1 g and 0.9 g | KIDNEY_TOTAL (9 h): 2 g and 1.8 g | LIVER (9 h): 9.3 g and 10.4 g | A/G (9 h, tissue Plasma): 1.6 and 2.2 | ALP (9 h, tissue Plasma): 901.6 IU/L and 1778 IU/L | ALT (9 h, tissue Plasma): 34.4 IU/L and 40.2 IU/L | AST (9 h, tissue Plasma): 62.2 IU/L and 71 IU/L | BUN (9 h, tissue Plasma): 11.6 mg/dL and 14.6 mg/dL | CRE (9 h, tissue Plasma): 0.4 mg/dL and 0.3 mg/dL | Ca (9 h, tissue Plasma): 10.6 mg/dL and 11.3 mg/dL | Cl (9 h, tissue Plasma): 102.2 meq/L and 104.4 meq/L | GLC (9 h, tissue Plasma): 194 mg/dL and 183.2 mg/dL | IP (9 h, tissue Plasma): 9.3 mg/dL and 7.7 mg/dL | K (9 h, tissue Plasma): 4 meq/L and 4.9 meq/L | LDH (9 h, tissue Plasma): 211.8 IU/L and 71.2 IU/L | Na (9 h, tissue Plasma): 140.2 meq/L and 137.2 meq/L | PL (9 h, tissue Plasma): 143.8 mg/dL and 168 mg/dL | RALB (9 h, tissue Plasma): 3.3 g/dL and 3.9 g/dL | TBIL (9 h, tissue Plasma): 0.1 mg/dL and 0.038 mg/dL | TC (9 h, tissue Plasma): 78.8 mg/dL and 100.6 mg/dL | TG (9 h, tissue Plasma): 77.2 mg/dL and 109.6 mg/dL | TP (9 h, tissue Plasma): 5.3 g/dL and 5.6 g/dL | gamma-GTP (9 h, tissue Plasma): 0.6 IU/L and 1 IU/L | TERMINAL_BW (24 h): 232.8 g and 218.4 g | APTT (24 h): 19 s and 15.6 s | Bas (24 h): 0% | Eos (24 h): 1% | Fbg (24 h): 219.8 mg/dL and 239.4 mg/dL | Hb (24 h): 13.6 g/dL and 13.4 g/dL | Ht (24 h): 39.2% and 40.4% | Lym (24 h): 75.2% and 73% | MCH (24 h): 22 pg and 21.7 pg | MCHC (24 h): 34.9% and 33.3% | MCV (24 h): 63.2 fL and 65.2 fL | Mono (24 h): 3% and 10.2% | Neu (24 h): 19.6% and 15.6% | PT (24 h): 12.5 s and 11.7 s | Plat (24 h): 119.5 x10_4/uL and 120.8 x10_4/uL | RBC (24 h): 620.4 x10_4/ul and 619 x10_4/ul | Ret (24 h): 7% and 6.5% | WBC (24 h): 95.9 x10_2/uL and 73.9 x10_2/uL | KIDNEY_L (24 h): 1 g | KIDNEY_R (24 h): 1.1 g and 1 g | KIDNEY_TOTAL (24 h): 2.1 g and 2 g | LIVER (24 h): 11.1 g and 10.1 g | A/G (24 h, tissue Plasma): 1.4 and 2.4 | ALP (24 h, tissue Plasma): 1022.4 IU/L and 1561.4 IU/L
